According to patent US20080026409A1, “SALT-SENSITIVE HYPERTENSION” (THE BOARD OF TRUSTEES OF THE UNIVERSITY OF ILLINOIS, priority 2006, published 2008):
“Also recorded” adds a separate entry of the source.

What was measured:
[1] = test system: basolateral Na/K ATPase in LLCPK1 cells; assay: Basolateral Na/K ATPase expression by surface biotinylation and Western blot; type: cell-based; conditions: for expression of basolateral Na/K ATPase: LLCPK1 cells, Ang IV 10^−9 M×20 hours, siRNA transfection
Description: Representative autoradiograph of Na-K ATPase as detected by Western blot represented above bar-graph. Upper panel: representative autoradiograph of Na-K ATPase as detected by Western blot. Overexpression of APN( APN Over Exp) n=3 (except Ang IV, n=6) * P<0.05 compared to control paired t-test) Complementary measurements of Na/K ATPase expression by confocal microscopy-FIG. 5).
(§1) Na/K ATPase expression and activity are measured by basolateral surface biotinylation and oubain-inhibitable ATPase activity, respectively, in cells cultured in Transwell plates.
In complementary experiments, basolateral Na/K ATPase expression in cultured cells is measured both by biotinylation and confocal microscopy. Biotinylation technique to assess the surface Na/K ATPase protein has already been established in our laboratory. Biotinylation is performed as using NHS-S-S-biotin (Pierce). Labeling for 20 min at the basolateral domain in cells grown in transwells at 4° C. to stop endocytosis and internalization of antigen. Biotinylated antigens are immunoprecipitated with streptavidin agarose and released by incubation in 10 mM dithiothreitol, reconstituted in Laemmli buffer, subjected to SDS-PAGE and then probed with Anti alphal Na/K ATPase mAb (Upstate/ Millipore, Billerica, Mass.). For analysis, surface Na/K ATPase is compared to total protein as determined by immunoblotting in solubilized cell extract and with the amount of Na/K ATPase not removed by avidin precipitation method (intracellular pool).

LLC-PK cells = assay: Quantitative immunohistochemistry for APN and Ang IV after siRNA; type: cell-based; conditions: siRNA 2 μg per well, 48 hours, Q-IHC, P<0.05 vs control
Description: The top panel is a scan of photographs showing quantitative immunohistochemistry (QIH-C) for APN and Ang IV. Cells were grown in 4 well chamber plates. For siRNA, each well was incubated (37° C. for 5 hours) with 1 ml media containing 4 μl of Enhancer R, 4 μl of RNAi (2 μg), 8 μl of Transmessenger Reagent and […] of optimem followed by 0.5 ml of optimem+20% FBS for 48 hours. The cells were fixed with 3.7% formaldehyde and stained using DakoCytomation staining kit. The amount of DAB staining was measured using Q-IHC. N=10 fields analyzed/transfection×2 transfections P<0.05 vs control. Upper panel: representative fields. Positive staining-arrows.
APN abundance regulates Ang IV: To initially address the hypothesis that the mechanism for APN-mediated regulation of Na/K ATPase is via Ang IV signaling, the effect of suppression of endogenous APN expression with siRNA on Ang IV abundance was measured in LLC-PK cells (FIG. 3A-3B). siRNA to APN decreased both APN and Ang IV expression, indicating the Ang IV level was regulated by APN.
For quantitative immunohistochemistry, a standard three-stage indirect immunoperoxidase technique is used on formalin fixed kidney sections. Images are acquired using a 4.9 million pixel digital scanning 24-bit RGB camera, saved in TIFF format, and used for subsequent analysis. […]

Dahl SR rats = assay: Infusion of Anpep inhibitor, salt-sensitivity by radiotelemetric blood pressure; type: in vivo, rat; conditions: preliminary experiments
Description: For these experiments, continuous radiotelemetric blood pressure monitoring is performed in rats instrumented with transducers and osmotic mini-pumps.

[2] = test system: Dahl SS/Jr rats on 8% NaCl; assay: Radiotelemetric blood pressure monitoring during Ang IV infusion; type: in vivo, rat; conditions: 10 day Ang IV infusion 7 pmol/minute, n=4, P<0.05
Description: Radiotelemetric blood pressure monitoring with 10 day Ang IV (7 pmol/minute) infusion (===). Systolic BP (peak) 157-188 mmHg. BP for each rat normalized to day 9, each BP averaged during 12 hour dark cycle (rats maintained 12 hours light/dark cycle). Day 0—surgical implantation of pressure transducer and infusion pump. n =4,- - - less than days 6-9 (initial infusion of Ang IV) and 16-24 (P<0.05).
Continuous arterial blood pressure monitoring is by radiotelemetry in freely moving instrumented rats. An implantable osmotic pump is used for infusion experiments.
First, for tail-cuff measurements, the rats must be restrained which falsely elevates the blood pressure due to adrenergic storm. With radiotelemetry, the rats are unrestrained and blood pressures are measured continuously in freely moving rats in large cages. […] Third, with tail cuff, blood pressures are measured once or at most twice a day, whereas, with radiotelemetry, blood pressures are measured continuously, allowing assessment of diurnal patterns and the time-integral of overall blood pressure burden. […]
Survival Surgery and Radiotelemetry Measurement of Central Aortic Pressure. […] Once the transmitter is activated by a special magnet, measurements of pulsatile central aortic blood pressure is recorded continuously by placing an individual receiver under each rat's cage. […]

[3] = test system: Na/K ATPase in LLCPK1 cells; assay: Na/K ATPase distribution by confocal immunofluorescence; type: cell-based; conditions: for Na/K ATPase distribution (endocytosis, membrane abundance): LLCPK1 cells, Ang IV 10 nM×12 hours, oubain 50 nM×12 hours (control); for APN induced endocytosis of Na/K ATPase: LLCPK1 cells with APN overexpression plus siRNA
Description: FIGS. 6A-6G are scans of photographs showing Na/K ATPase distribution in LLCPK1 cells by immuno fluorescence (complementary to FIG. 5): Confocal images from z-stacked permeabilized LLCPK1 cells probed for Na/K ATPase using monoclonal Ab against the alpha subunit of Na/K ATPase (1:100). FIG. 6A: Control. […] All images were generated with a Zeiss LSM 410 laser scanning confocal microscope at 100×. All settings were the same for all images obtained. Images are representative of experiments repeated twice. Arrows: endocytosis of Na/K ATPase.
Confocal microscopy: Confocal fluorescence microscopy is performed using a Zeiss LSM 510 confocal microscope and Anti alphal Na/K ATPase mAb (Upstate/ Millipore, Billerica, Mass.) to further confirm the internalization of surface Na/K ATPase.

[4] = test system: Na/K ATPase in LLCPK1 cells; assay: Na/K ATPase activity (oubain-inhibitable ATPase) in cultured cells; type: cell-based; conditions: FIG. 7, n=1 (triplicate)
Description: FIG. 7 is a graph showing Na/K ATPase activity parallels changes in basolateral Na/K ATPase expression in LLCPK1 cells treated with siRNA to APN and AT4; Ang IV and oubain (control). n=1 (triplicate). siRNA to APN (siRNA-APN); siRNA to AT4 (siRNA-AT4); APN over-expression (APN o/e).
as §1
Measurement of Na/KATPase expression and activity: Na/K ATPase activity in membranes isolated from proximal tubule fractions and membranes from cultured/transfected cell lines is measured as the rate of inorganic phosphate, using coloring reagent (10% ammonium molybdate in 10 N sulfuric acid +ferrous sulfate) released in the presence or absence of oubain.

rat = conditions: infusion into the renal artery, cited from earlier work
[5] = test system: primary cultures of rat renal epithelial cells; conditions: cited from earlier work
rat proximal tubules = conditions: fresh suspensions of control or nystatin-stimulated rat proximal tubules; cited from earlier work
HK-2 cells = conditions: cited from earlier work

Question: With “5′-UCGGGCACAGAUCAUUAUUd(TT)-3′; SEQ ID NO: 3 [siRNA to APN]” as the molecule, how does the “expression of basolateral Na/K ATPase” value [1] read?
Answer: increased

Question: And the APN expression (LLC-PK cells)?
Answer: reduces; also recorded: decreased

Question: What about the “Ang IV expression” value (LLC-PK cells) of the same molecule?
Answer: reduces; also recorded: decreased

Question: For `CC(C)C[C@H](NC(=O)C(O)[C@H](N)Cc1ccccc1)C(=O)O` (stereo partly drawn) [bestatin, (2S,3R)-3-amino-2-hydroxy-4-phenylbutanoyl-L-leucine], which salt-sensitivity (Dahl SR rats) is on record?
Answer: induced sensitivity

Question: Which “blood pressure (BP)” value [2] does the source give for `CC[C@H](C)[C@H](NC(=O)[C@H](Cc1ccc(O)cc1)NC(=O)[C@@H](N)C(C)C)C(=O)N[C@@H](Cc1cnc[nH]1)C(=O)N1CCC[C@H]1C(=O)N[C@@H](Cc1ccccc1)C(=O)O` [Ang IV, V-Y-I-H-P-F (SEQ ID NO: 2)] here?
Answer: reduces blood pressure; also recorded: lowers arterial blood pressure

Question: What about the “expression of basolateral Na/K ATPase” value [1] of the same molecule?
Answer: tend to reduce; also recorded: reduced

Question: And the “Na/K ATPase distribution (endocytosis, membrane abundance)” value [3]?
Answer: endocytosis and reduced membrane abundance of Na/K ATPase

Question: What about the “activity of basolateral Na/K ATPase” value [4] of the same molecule?
Answer: reduce

Question: What about the cortical blood flow (rat; rat) of the same molecule?
Answer: increases cortical blood flow

Question: And the Na excretion (rat)?
Answer: increases urinary Na excretion; also recorded: promotes Na excretion

Question: And the blood pressure (rat)?
Answer: lowers blood pressure

Question: What about the “transcellular Na transport” value [5] of the same molecule?
Answer: dose-dependent decrease

Question: What about the “transcellular Na+ transport (proximal tubule O2 consumption rates)” value (rat proximal tubules) of the same molecule?
Answer: decreases

Question: What about the “Na uptake (reflecting decreased flux)” value (HK-2 cells) of the same molecule?
Answer: increases Na uptake

Question: With “5′-AACCTGAGTCAGGACGTAAT-3′; SEQ ID NO: 4 [siRNA to AT4 receptor]” as the molecule, how does the “regulation (reduction) of Na/K ATPase expression by Ang IV” value ([1]; LLCPK1 cells treated with siRNA and Ang IV) read?
Answer: partially abolishes; also recorded: abrogated

Question: And the “expression of basolateral Na/K ATPase” value [1]?
Answer: increase

Question: What about the “APN induced endocytosis of Na/K ATPase” value [3] of the same molecule?
Answer: partially blocks

Question: What about the “APN induced endocytosis of Na/K ATPase” value ([3]; listed as siRNA to the AT4 receptor) of the same molecule?
Answer: abrogrates

Question: With `C[C@@H]1O[C@@H](O[C@H]2C[C@@H](O)[C@]3(CO)[C@H]4[C@H](O)C[C@]5(C)[C@@H](C6=CC(=O)OC6)CC[C@]5(O)[C@@H]4CC[C@]3(O)C2)[C@H](O)[C@H](O)[C@H]1O` [oubain] as the molecule, how does the “Na/K ATPase distribution (endocytosis, membrane abundance)” value [3] read?
Answer: endocytosis
